Among the data in patent publication US20090105278A1, “Selective inhibitors of human corticosteroid syntheses” (Universitat Des Saarlandes, priority 2004, published 2009) are IC50 and inhibition values, retold here.

One experiment has as its target T1, human CYP11B1 (Homo sapiens, UniProt P15538).
T1 construct: expressed in transfected cells; host or cells: V79 MZh11B1 (Chinese hamster lung fibroblasts)
T1 sequence (P15538 25-503): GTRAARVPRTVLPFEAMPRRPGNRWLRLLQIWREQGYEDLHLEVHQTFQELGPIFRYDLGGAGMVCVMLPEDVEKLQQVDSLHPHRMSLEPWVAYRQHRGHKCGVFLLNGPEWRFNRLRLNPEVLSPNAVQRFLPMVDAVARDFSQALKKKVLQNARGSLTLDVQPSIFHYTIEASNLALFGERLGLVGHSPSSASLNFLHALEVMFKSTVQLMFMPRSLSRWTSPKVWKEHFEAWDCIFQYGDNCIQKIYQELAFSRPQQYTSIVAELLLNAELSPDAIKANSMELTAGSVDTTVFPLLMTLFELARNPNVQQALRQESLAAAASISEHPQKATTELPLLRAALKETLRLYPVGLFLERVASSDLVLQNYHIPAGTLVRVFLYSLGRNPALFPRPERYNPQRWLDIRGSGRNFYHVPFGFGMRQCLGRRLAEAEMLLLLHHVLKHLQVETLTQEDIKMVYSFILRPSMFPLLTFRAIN
The experiment can be described thus: V79 MZh 11B1 cells inhibition test. The experiment is classed as cell-based. The note with it: hamster fibroblasts which express human CYP11B1; deoxycorticosterone substrate 100 nM; read-out: IC50 V79 11B1 hCYP11B1. As to the method:
Both cell lines were cultured in DMEM^+ containing […] and the antibiotics penicillin and streptomycin (10%) for protection from bacterial contamination. The cells were passaged every 2-3 days after treatment with trypsin/EDTA because the doubling rate was 1-2 days depending on the number of cells. […] When there was further need, freshly thawed cells were employed.
Thereafter, the plate was stored at 37° C. and […] in a CO2 incubator. […] Controls without inhibitor were treated in the same way. The enzyme reactions were quenched by extracting the supernatant with 500 μl of EtOAc. The samples were centrifuged (10,000 g, 2 min), the solvent was removed and evaporated.
It was calculated by determining the percent inhibition for at least 3 different inhibitor concentrations, which must all be in the linear range of the sigmoidal IC50 curve (log C/% inhibition).
The calculation was effected by linear regression. The values determined were used only if they formed a straight line with a reliability of […].
The plate was developed twice with the mobile solvent chloroform:methanol:water (300:20:1). Unlabeled 11-deoxycorticosterone and corticosterone were applied as a reference for the CYP11B1 reaction. For the CYP11B2 reaction, 11-deoxycorticosterone, corticosterone, 18-hydroxycorticosterone and aldosterone were used as references. The detection of the unlabeled references was effected at 260 nm. Subsequently, imaging plates (BAS MS2340, for ^14C samples, Raytest, Straubenhardt, Germany) were exposed to the HPTLC plates for 48 h. The imaging plates were scanned with the phosphoimager system Fuji FLA 3000 (Raytest, Straubenhardt, Germany), and the steroids were quantified.

The target of a further experiment is T2, human CYP17 (Homo sapiens, UniProt P05093).
T2 construct: made in house; host or cells: E. coli pJL17/OR (membrane fraction)
T2 sequence (P05093 1-508): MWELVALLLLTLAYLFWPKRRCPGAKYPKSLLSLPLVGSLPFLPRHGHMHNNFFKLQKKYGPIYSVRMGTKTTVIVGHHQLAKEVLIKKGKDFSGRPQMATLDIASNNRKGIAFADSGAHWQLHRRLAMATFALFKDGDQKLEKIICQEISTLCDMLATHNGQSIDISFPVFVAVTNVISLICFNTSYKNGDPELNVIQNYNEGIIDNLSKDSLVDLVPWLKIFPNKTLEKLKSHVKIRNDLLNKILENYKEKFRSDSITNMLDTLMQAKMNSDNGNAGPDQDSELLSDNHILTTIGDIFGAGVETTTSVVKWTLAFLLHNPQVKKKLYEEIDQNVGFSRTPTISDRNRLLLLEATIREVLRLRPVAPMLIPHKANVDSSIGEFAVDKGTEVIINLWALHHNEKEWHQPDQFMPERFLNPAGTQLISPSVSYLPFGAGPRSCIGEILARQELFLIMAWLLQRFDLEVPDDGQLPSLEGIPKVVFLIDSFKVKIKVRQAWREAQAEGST
The experiment can be described thus: Percent inhibition of CYP17 (membrane fraction of E. coli pJL17/OR). Format: biochemical. Conditions: E. coli which expresses human CYP17; 5 mg/ml protein; progesterone substrate 2.5 μM; inhibitor 2.5 μM; read-out: % Inhibition human CYP17. The gist of the method: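 Membranes were isolated from E. coli pJL17/OR, which coexpresses human CYP17 with rat NADPH-P450-reductase, by lysozyme treatment, sonication and centrifugation at 50,000 g, then stored at −70° C. Reactions were started with diluted membrane suspension (0.8 to 1 mg of protein per ml), incubated at 37° C for 30 min, extracted with EtOAc and analyzed by HPLC. Inhibition was calculated from reduced substrate conversion versus DMSO controls.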

Where a name gives a salt, the structure may show the parent alone.

With `COc1ccc2c(c1)CC/C2=C\c1cccnc1` [Compound 11a, 3-[(E)-(5-Methoxy-2,3-dihydro-1H-indane-1-ylidene)methyl]pyridine Hydrochloride], the IC50 at human CYP11B1 came to 1450 nM. Besides, on human CYP17, the inhibition at 2.5 µM amounted to 36%.

For the compound `COc1ccc2c(c1)CC/C2=C/c1cccnc1` [Compound 11b, 3-[(Z)-(5-Methoxy-2,3-dihydro-1H-indane-1-ylidene)methyl]pyridine Hydrochloride], the 50% inhibitory concentration (IC50) at human CYP11B1 was 790 nM. Besides, the inhibition at 2.5 µM at human CYP17 was 49%.

With `COc1ccc2c(c1)CCC/C2=C\c1cccnc1` [Compound 13a, 3-[(E)-(6-Methoxy-3,4-dihydronaphthalene-1(2H)-ylidene)methyl]pyridine Hydrochloride], the concentration for half-maximal inhibition (IC50) at human CYP11B1 amounted to 903 nM. Besides, the inhibition at 2.5 µM on human CYP17 came out at 20%.

As for `COc1ccc2c(c1)CCC/C2=C/c1cccnc1.Cl` [Compound 13b, 3-[(Z)-(6-Methoxy-3,4-dihydronaphthalene-1(2H)-ylidene)methyl]pyridine Hydrochloride], the IC50 on human CYP11B1 turned out to be 206 nM. Further, at human CYP17, the inhibition at 2.5 µM was determined as 17%.

`CCOc1ccc2c(c1)CC/C2=C\c1cccnc1` [Compound 19a, 3-[(E)-(5-Ethoxy-2,3-dihydro-1H-indane-1-ylidene)methyl]pyridine Hydrochloride]: the IC50 on human CYP11B1 was 2370 nM. In addition, the inhibition at 2.5 µM at human CYP17 was found to be 13%.

As for `CCOc1ccc2c(c1)CC/C2=C/c1cccnc1` [Compound 19b, 3-[(Z)-(5-Ethoxy-2,3-dihydro-1H-indane-1-ylidene)methyl]pyridine Hydrochloride], the IC50 on human CYP11B1 amounted to 2700 nM. On human CYP17, the inhibition at 2.5 µM came out at 6%.

As for `Cc1cccc2c1CC/C2=C\c1cccnc1` [Compound 23a, 3-[(E)-(4-Methyl-2,3-dihydro-1H-indane-1-ylidene)methyl]pyridine Hydrochloride], on human CYP11B1, the half-inhibitory concentration (IC50) was 763 nM. The inhibition at 2.5 µM on human CYP17 was 40%.

For the compound `Fc1cccc2c1CC/C2=C\c1cccnc1` [Compound 24a, 3-[(E)-(4-Fluoro-2,3-dihydro-1H-indane-1-ylidene)methyl]pyridine Hydrochloride], the half-maximal inhibitory concentration (IC50) on human CYP11B1 turned out to be 774 nM. Also, the inhibition at 2.5 µM at human CYP17 was determined as 42%.

Turning to `Clc1cccc2c1CC/C2=C\c1cccnc1` [Compound 25a, 3-[(E)-(4-Chloro-2,3-dihydro-1H-indane-1-ylidene)methyl]pyridine Hydrochloride], on human CYP11B1, the IC50 was determined as 304 nM. For the same compound, at human CYP17, the inhibition at 2.5 µM was 14%.

For `Clc1cccc2c1CC/C2=C/c1cccnc1` [Compound 25b, 3-[(Z)-(4-Chloro-2,3-dihydro-1H-indane-1-ylidene)methyl]pyridine Hydrochloride], the 50% inhibitory concentration (IC50) at human CYP11B1 was found to be 657 nM. In addition, the inhibition at 2.5 µM at human CYP17 turned out to be 32%.

As for `COc1cccc2c1/C(=C/c1cccnc1)CC2` [Compound 26a, 3-[(E)-(7-Methoxy-2,3-dihydro-1H-indane-1-ylidene)methyl]pyridine Hydrochloride], the IC50 on human CYP11B1 was 955 nM. Also, the inhibition at 2.5 µM at human CYP17 was 5%.

In the case of `Fc1ccc2c(c1)CC/C2=C\c1cncnc1` [Compound 28a, 5-[(E)-(5-Fluoro-2,3-dihydro-1H-indane-1-ylidene)methyl]pyrimidine Hydrochloride], on human CYP11B1, the IC50 stood at 3180 nM. In addition, the inhibition at 2.5 µM at human CYP17 is 6%.

Regarding `Fc1ccc2c(c1)CC/C2=C\c1cccc2cnccc12` [Compound 30a, 5-[(E)-(5-Fluoro-2,3-dihydro-1H-indane-1-ylidene)methyl]isoquinoline Hydrochloride], on human CYP11B1, the concentration for half-maximal inhibition (IC50) came to 1130 nM. In addition, the inhibition at 2.5 µM on human CYP17 was 57%.

Take `Fc1ccc2c(c1)CC/C2=C/c1cccc2cnccc12` [Compound 30b, 5-[(Z)-(5-Fluoro-2,3-dihydro-1H-indane-1-ylidene)methyl]isoquinoline Hydrochloride]: the IC50 at human CYP11B1 amounted to 374 nM. Further, the inhibition at 2.5 µM on human CYP17 was determined as 65%.

`C(=C1/CCc2ccccc21)/c1cnc[nH]1` [Compound 42a, 5-[(E)-2,3-Dihydro-1H-indane-1-ylidenemethyl]-1H-imidazole]: the 50% inhibitory concentration (IC50) at human CYP11B1 worked out at 25.9 nM. In addition, the inhibition at 2.5 µM on human CYP17 turned out to be 11%.

With `C(=C1\CCc2ccccc21)/c1cnc[nH]1` [Compound 42b, 5-[(Z)-2,3-Dihydro-1H-ind-1-ylidenemethyl]-1H-imidazolium oxalate], the half-inhibitory concentration (IC50) on human CYP11B1 was found to be 6.1 nM. The inhibition at 2.5 µM on human CYP17 turned out to be 1%.

What is called IC50 is the concentration at which inhibition is half-maximal. The term inhibition denotes the change of the read-out against control, counted positive when it falls.
